Key:
[1] = test system: T4 lymphocytes (cell line: CEM-SS); experiment: Toxicity control: uninfected T4 lymphocytes (CEM-SS) with compound only, XTT; type: cell-based; details: 6 days
Description: (§1) T4 lymphocytes (cell line: CEM-SS), which are killed by HIV within two replication cycles, are used as the test system. That which is detected is the inhibition of cell death. The compound according to the invention is dissolved in DMSO and this solution is diluted with cell culture medium in the ratio 1:100. […] All the cell cultures are examined spectrophotometrically in order to quantify production of formazan. In addition to this, individual cultures are examined microscopically in order to confirm the anti-HIV activity. The virus-infected cells which have been treated with the compound according to the invention are compared with the standard on the same plate. The in-vitro anti-HIV activity data, which were determined within the context of a National Cancer Institute Developmental Therapeutics Program, are summarized in the following table.

HIV = experiment: In-vitro anti-HIV effect: inhibition of HIV-induced cell death of T4 lymphocytes (CEM-SS), XTT; type: cell-based; details: 6 days
Description: as §1

Question: How did the IC50 ([1]; read-out: 50% cell growth (IC50)) turn out when CCCCCCCCCCCCCCCC(=O)Nc1ccn(C2CCC(COP(=O)(O)OCC(COP(=O)(O)OCC3OC(n4cc(C)c(=O)[nH]c4=O)CC3N=[N+]=[N-])OC(=O)CCCCCCCCCCCCCCC)O2)c(=O)n1 (racemic) [NSC 704532-F/1, N^4-palmitoyl-2′,3′-dideoxycytidylyl-(5′→1)-2-O-palmitoyl-rac-glycerylyl-(3→5′)-3′-azido-2′,3′-dideoxythymidine] was run?
Answer: Its IC50 is greater than 1000 nM.

Question: What about the “Percent of control uninfected” value ([1]; Dose 1.00 * 10^−6 molar) of the same compound?
Answer: Its value is 119.96%.

Question: What about the “Percent of control uninfected” value ([1]; Dose 1.00 * 10^−7 molar) of the same compound?
Answer: The value was 112.26%.

Question: What about the “Percent of control uninfected” value ([1]; Dose 1.00 * 10^−8 molar) of the same compound?
Answer: The value was 99.64%.

Question: What about the “Percent of control uninfected” value ([1]; Dose 1.00 * 10^−9 molar) of the same compound?
Answer: Its value is 105.03%.

Question: And the “Percent of control uninfected” value ([1]; Dose 3.16 * 10^−7 molar)?
Answer: Its value is 112.02%.

Question: And the “Percent of control uninfected” value ([1]; Dose 3.16 * 10^−8 molar)?
Answer: The value was 104.96%.

Question: And the “Percent of control uninfected” value ([1]; Dose 3.17 * 10^−9 molar)?
Answer: The value was 101.22%.

Question: And the “Percent of control uninfected” value ([1]; Dose 3.17 * 10^−10 molar)?
Answer: Its value is 105.43%.

Question: And the “Percent of control infected” value (HIV; Dose 1.00 * 10^−6 molar)?
Answer: The value was 113.49%.

Question: And the Percent protection (HIV; Dose 1.00 * 10^−6 molar, HIV-infected CEM-SS)?
Answer: Its Percent protection is 114.05%.

Question: What about the “Percent of control infected” value (HIV; Dose 1.00 * 10^−7 molar) of the same compound?
Answer: The value was 106.07%.

Question: And the Percent protection (HIV; Dose 1.00 * 10^−7 molar, HIV-infected CEM-SS)?
Answer: The Percent protection was 106.32%.

Question: And the “Percent of control infected” value (HIV; Dose 1.00 * 10^−8 molar)?
Answer: The value was 23.62%.

Question: And the Percent protection (HIV; Dose 1.00 * 10^−8 molar, HIV-infected CEM-SS)?
Answer: The Percent protection was 20.44%.

Question: What about the “Percent of control infected” value (HIV; Dose 1.00 * 10^−9 molar) of the same compound?
Answer: The value was 4.21%.

Question: And the Percent protection (HIV; Dose 1.00 * 10^−9 molar, HIV-infected CEM-SS)?
Answer: The Percent protection was 0.22%.

Question: What about the “Percent of control infected” value (HIV; Dose 3.16 * 10^−7 molar) of the same compound?
Answer: The value was 104.16%.

Question: What about the Percent protection (HIV; Dose 3.16 * 10^−7 molar, HIV-infected CEM-SS) of the same compound?
Answer: The Percent protection was 104.33%.

Question: And the “Percent of control infected” value (HIV; Dose 3.16 * 10^−8 molar)?
Answer: The value was 80.22%.

Question: What about the Percent protection (HIV; Dose 3.16 * 10^−8 molar, HIV-infected CEM-SS) of the same compound?
Answer: Its Percent protection is 79.40%.

Question: What about the “Percent of control infected” value (HIV; Dose 3.17 * 10^−9 molar) of the same compound?
Answer: The value was 14.25%.

Question: And the Percent protection (HIV; Dose 3.17 * 10^−9 molar, HIV-infected CEM-SS)?
Answer: Its Percent protection is 10.68%.

Question: What about the “Percent of control infected” value (HIV; Dose 3.17 * 10^−10 molar) of the same compound?
Answer: The value was 5.80%.

Question: And the Percent protection (HIV; Dose 3.17 * 10^−10 molar, HIV-infected CEM-SS)?
Answer: The Percent protection was 1.88%.

Question: And the EC50 (HIV; HIV-infected CEM-SS, read-out: 50% protection from infection (EC5.))?
Answer: The EC50 was 17.9 nM.

— patent US6787525B1, “Glyceryl nucleotides, method for the production thereof and their use” (priority 1998, dated 2004)
